From patent US20230414607A1, “METHODS OF TREATMENT” (BOW RIVER LLC, priority 2017, published 2023)
Like-named read-outs stand apart in the source and are kept apart here. Marks after values point to notes of the source that are not given here.

Columns and labels:
[1] = Plasma ranolazine pharmacokinetics before, during and after posaconazole in normal-weight and obese subjects; format: in vivo, human; details: for Time the interaction persisted above an AUC GMR of 1.5: after cessation of posaconazole administration; for Time the interaction persisted above a Cmax GMR of 1.5: after cessation of posaconazole
Method: Procedures. […] On study day 2, subjects received posaconazole (300 mg delayed-release tablet twice a day), and on the mornings of days 3-15, subjects received posaconazole (300 mg delayed-release tablet daily). Because posaconazole is to be taken with food,^6 subjects were fed a continental breakfast in the clinical research unit after receiving posaconazole and before discharge from the unit. […] Samples were centrifuged, and the plasma was separated and frozen at −70° C. until the time of assay of plasma posaconazole concentrations. […] Plasma samples were extracted by methyl tertiary butyl ether, centrifuged, and the upper layer was transferred to plastic injection vials with MeOH/water (50:50). An aliquot of the sample was then injected onto a high-pressure liquid chromatography with tandem mass spectrometry triple quadrupole mass spectrometer (Sciex API-5500). The analytical column was a Unison CK-218, 3 μm particle size HPLC column (50×2 mm) from Imtakt USA (Portland, OR). […] Pharmacokinetic and Statistical Methods. […] This was used to calculate the half-life (t1/2). The area under the plasma concentration curve from time 0 until the last nonzero point was determined by the linear trapezoidal method. To this was added the residual area, calculated as the final nonzero concentration divided by β, yielding the total area under the plasma concentration curve extrapolated to infinity (AUC). Also tabulated was the observed maximum plasma concentration (Cmax). Variables were aggregated as arithmetic mean and SD.

[2] = as above; format: in vivo; details: human, oral, 500 mg, Day 1, obese subjects, ranolazine 500 mg ER
[3] = human, plasma, oral, 500 mg, Day 1 (before posaconazole), normal-weight subjects, ranolazine 500 mg ER, mean ± SD
[4] = human, plasma, oral, 500 mg, Day 1 (before posaconazole), obese subjects, ranolazine 500 mg ER, mean ± SD
[5] = human, plasma, oral, 500 mg, Day 18 (3 days after last posaconazole dose), normal-weight subjects, ranolazine 500 mg ER, mean ± SD
[6] = human, plasma, oral, 500 mg, Day 18 (3 days after last posaconazole dose), obese subjects, ranolazine 500 mg ER, mean ± SD
[7] = human, plasma, oral, 500 mg, Day 22 (7 days after last posaconazole dose), normal-weight subjects, ranolazine 500 mg ER, mean ± SD
[8] = human, plasma, oral, 500 mg, Day 22 (7 days after last posaconazole dose), obese subjects, ranolazine 500 mg ER, mean ± SD
[9] = human, plasma, oral, 500 mg, Day 25 (10 days after last posaconazole dose), normal-weight subjects, ranolazine 500 mg ER, mean ± SD
[10] = human, plasma, oral, 500 mg, Day 25 (10 days after last posaconazole dose), obese subjects, ranolazine 500 mg ER, mean ± SD
[11] = human, plasma, oral, 500 mg, Day 29 (14 days after last posaconazole dose), normal-weight subjects, ranolazine 500 mg ER, mean ± SD
[12] = human, plasma, oral, 500 mg, Day 29 (14 days after last posaconazole dose), obese subjects, ranolazine 500 mg ER, mean ± SD
[13] = human, plasma, oral, Day 15 (last day of posaconazole 300 mg daily), normal-weight subjects, ranolazine 500 mg ER, mean ± SD
[14] = human, plasma, oral, Day 15 (last day of posaconazole 300 mg daily), obese subjects, ranolazine 500 mg ER, mean ± SD

T1/2 ([1]; Day 1 (before posaconazole), normal-weight subjects, ranolazine 500 mg ER, mean ± SD): 4.98 ± 1.50^a h
Time the interaction persisted above an AUC GMR of 1.5 ([1]; normal-weight subjects): at least 7 days
Time the interaction persisted above an AUC GMR of 1.5 ([1]; obese subjects): ≥ 10 days
Time the interaction persisted above a Cmax GMR of 1.5 ([1]; normal-weight subjects): 7 days
Time the interaction persisted above a Cmax GMR of 1.5 ([1]; obese subjects): 10 days
Time the lower bound of the AUC GMR 90% CI remained above 1.0 ([1]; both normal-weight and obese subjects): 7 days
AUC(0-inf) [1, 3]: 7080 ± 3600 ng·h/mL
half-life [1, 3]: 4.99 ± 1.5 h
Cmax ([1]; human, plasma, oral, 500 mg, Day 1 (before posaconazole), normal-weight subjects, ranolazine 500 mg extended-release tablet, mean ± SD, read-out: Cmax): 665 ± 318 ng/mL
AUC(0-inf) [1, 4]: 8130 ± 4840 ng·h/mL
half-life [1, 4]: 6.02 ± 1.75 h
Cmax ([1]; human, plasma, oral, 500 mg, Day 1 (before posaconazole), obese subjects, ranolazine 500 mg extended-release tablet, mean ± SD, read-out: Cmax): 559 ± 271 ng/mL
Cmax ([1]; human, plasma, oral, 500 mg, Day 1, normal-weight subjects, ranolazine 500 mg ER, read-out: Geometric mean Cmax): 665 ± 318 ng/mL
AUC(0-inf) [1, 5]: 17300 ± 10300 ng·h/mL
half-life [1, 5]: 5.73 ± 1.53 h
Cmax ([1]; human, plasma, oral, 500 mg, Day 18 (3 days after last posaconazole dose), normal-weight subjects, ranolazine 500 mg ER, mean ± SD, read-out: Cmax): 1190 ± 469 ng/mL
AUC(0-inf) [1, 6]: 19300 ± 14200 ng·h/mL
half-life [1, 6]: 7.93 ± 2.98 h
Cmax ([1]; human, plasma, oral, 500 mg, Day 18 (3 days after last posaconazole dose), obese subjects, ranolazine 500 mg ER, mean ± SD, read-out: Cmax): 1100 ± 502 ng/mL
AUC(0-inf) [1, 7]: 13400 ± 6250 ng·h/mL
half-life [1, 7]: 6.47 ± 3.14 h
Cmax ([1]; human, plasma, oral, 500 mg, Day 22 (7 days after last posaconazole dose), normal-weight subjects, ranolazine 500 mg ER, mean ± SD, read-out: Cmax): 974 ± 400 ng/mL
AUC(0-inf) [1, 8]: 15900 ± 11800 ng·h/mL
half-life [1, 8]: 6.09 ± 2.1 h
Cmax ([1]; human, plasma, oral, 500 mg, Day 22 (7 days after last posaconazole dose), obese subjects, ranolazine 500 mg ER, mean ± SD, read-out: Cmax): 1060 ± 508 ng/mL
AUC(0-inf) [1, 9]: 9380 ± 4590 ng·h/mL
half-life [1, 9]: 5.05 ± 1.82 h
Cmax ([1]; human, plasma, oral, 500 mg, Day 25 (10 days after last posaconazole dose), normal-weight subjects, ranolazine 500 mg ER, mean ± SD, read-out: Cmax): 928 ± 482 ng/mL
AUC(0-inf) [1, 10]: 13800 ± 10600 ng·h/mL
half-life [1, 10]: 6.07 ± 2.1 h
Cmax ([1]; human, plasma, oral, 500 mg, Day 25 (10 days after last posaconazole dose), obese subjects, ranolazine 500 mg ER, mean ± SD, read-out: Cmax): 976 ± 487 ng/mL
AUC(0-inf) [1, 11]: 8570 ± 3800 ng·h/mL
half-life [1, 11]: 4.45 ± 1.38 h
Cmax ([1]; human, plasma, oral, 500 mg, Day 29 (14 days after last posaconazole dose), normal-weight subjects, ranolazine 500 mg ER, mean ± SD, read-out: Cmax): 751 ± 276 ng/mL
AUC(0-inf) [1, 12]: 10200 ± 7940 ng·h/mL
half-life [1, 12]: 6.38 ± 3.05 h
Cmax ([1]; human, plasma, oral, 500 mg, Day 29 (14 days after last posaconazole dose), obese subjects, ranolazine 500 mg ER, mean ± SD, read-out: Cmax): 719 ± 333 ng/mL
AUC ([1]; human, plasma, oral, 500 mg, Geometric mean AUC for ranolazine, Day 1, normal-weight subjects, ranolazine 500 mg ER): 6450 ng·h/mL
AUC(0-inf) [1, 13]: 27500 ± 14900 ng·h/mL
half-life [1, 13]: 9.54 ± 4.3 h
Cmax ([1]; human, plasma, oral, Day 15 (last day of posaconazole 300 mg daily), normal-weight subjects, ranolazine 500 mg ER, mean ± SD, read-out: Cmax): 1430 ± 666 ng/mL
AUC(0-inf) [1, 14]: 25800 ± 21600 ng·h/mL
half-life [1, 14]: 8.78 ± 5.58 h
Cmax ([1]; human, plasma, oral, Day 15 (last day of posaconazole 300 mg daily), obese subjects, ranolazine 500 mg ER, mean ± SD, read-out: Cmax): 1180 ± 512 ng/mL
Cmax ([2]; read-out: Geometric mean Cmax): 559 ± 271 ng/mL
AUC ([2]; Geometric mean AUC for ranolazine): 6960 ng·h/mL
Compound: COc1ccccc1OCC(O)CN1CCN(CC(=O)Nc2c(C)cccc2C)CC1 (stereo not shown) [ranolazine]
